Data published in ChEMBL document CHEMBL1159103, “Discovery of biaryl inhibitors of H+/K+ ATPase” (Bioorg Med Chem Lett, 2010).

assay: Inhibition of H(+)/K(+) ATPase

SMILES	pIC50
Cc1nc(-c2cccc(-c3ccccc3)c2)[nH]c1C	4.7
CNCc1cccc(-c2c(C)cccc2C)c1	4.3
CCc1cccc(CC)c1-c1cccc(-c2nc(C)c(C)[nH]2)c1	5.1
Cc1cccc(C)c1-c1cccc(-c2ncc[nH]2)c1	4.5
CCCn1ccnc1-c1cccc(-c2c(C)cccc2C)c1	4.3
Cc1cccc(C)c1-c1cccc(-c2cn(C)c(C)n2)c1	4.8
Cc1cccc(C)c1-c1cccc(-c2nccn2C)c1	5.2
Cc1nc(-c2ccccc2-c2ccccc2)[nH]c1C	4.2
Cc1cccc(C)c1-c1cccc(-c2nc3ccccc3[nH]2)c1	4.4
CCCn1c(-c2cc(-c3c(C)cccc3C)ccc2OC)nc(C)c1C	4.9
Cc1cccc(C)c1-c1cccc(-c2cncn2C)c1	4.4
Cc1nc(-c2cccc(CCc3ccccc3)c2)[nH]c1C	4.3
Cc1cccc(C)c1-c1cccc(N2CCN(C)CC2)c1	4.4
Cc1cccc(C)c1-c1cccc(-c2cc(N)ccn2)c1	4.5
Cc1cccc(C)c1-c1ccc(OCc2ccccc2)c(-c2nc(C)c(C)[nH]2)c1	5.3
Cc1nc(-c2cccc(C(=O)Nc3ccccc3)c2)[nH]c1C	4
CCc1nc(-c2cccc(-c3c(C)cccc3C)c2)[nH]c1CC	4.8
Cc1nc(-c2cccc(/C=C/c3ccccc3)c2)[nH]c1C	4.4

Results, then the molecule that gave them:

pIC50	SMILES
4.3	Cc1cccc(C)c1CNc1cccc(-c2nc(C)c(C)[nH]2)c1
5.7	Cc1cccc(C)c1-c1ccc(O)c(-c2nc(C)c(C)[nH]2)c1
< 4	Cc1cccc(C)c1-c1cc(-c2nc(C)c(C)[nH]2)co1
5.2	Cc1cccc(C)c1-c1cccc(-c2nc(C)c(C)[nH]2)c1
4.9	Cc1cccc(C)c1Nc1cccc(-c2nc(C)c(C)[nH]2)c1
4.4	Cc1cccc(C)c1-c1ccc(-c2nc(C)c(C)[nH]2)cc1
4.9	Cc1ccc(-c2nc(C)c(C)[nH]2)cc1-c1c(C)cccc1C
4.6	Cc1cccc(C)c1-c1cccc(-c2nc(C)c(C)n2C)c1
4.6	COc1cc(-c2c(C)cccc2C)cc(-c2nc(C)c(C)[nH]2)c1OC
5.1	Cc1ccccc1-c1cccc(-c2nc(C)c(C)[nH]2)c1
5.7	Cc1cccc(C)c1-c1ccc(OCC(N)=O)c(-c2nc(C)c(C)[nH]2)c1
5.5	COc1c(-c2c(C)cccc2C)cc2c(c1-c1nc(C)c(C)[nH]1)OCC2
4.8	COc1ncccc1-c1cc(-c2nc(C)c(C)[nH]2)cc(-c2c(C)cccc2C)c1
4.1	Cc1cccc(C)c1-c1ccc(-c2nc(C)c(C)[nH]2)s1
< 4	COc1c(-c2nc(C)c(C)[nH]2)cccc1-c1c(C)cccc1C
4.5	Cc1cccc(C)c1-c1cc(-c2nc(C)c(C)[nH]2)cs1
6.1	COc1ccc(-c2c(C)cccc2C)cc1-c1nc(C)c(C)[nH]1
4.9	COc1ccc(-c2nc(C)c(C)[nH]2)cc1-c1c(C)cccc1C
5.4	COc1c(-c2c(C)cccc2C)cc2ccoc2c1-c1nc(C)c(C)[nH]1
5.6	CCOc1ccc(-c2c(C)cccc2C)cc1-c1nc(C)c(C)[nH]1
5	Cc1cccc(C)c1-c1ccc(OC(F)F)c(-c2nc(C)c(C)[nH]2)c1
5.9	COC(=O)COc1ccc(-c2c(C)cccc2C)cc1-c1nc(C)c(C)[nH]1
4.9	Cc1cccc(C)c1-c1ccc(-c2nc(C)c(C)[nH]2)o1
4.8	Cc1cscc1-c1cccc(-c2nc(C)c(C)[nH]2)c1
< 4	Cc1cccc(C)c1-c1cc(-c2nc(C)c(C)[nH]2)ccc1-c1ccncc1
